On to `COc1cc(CSCCNC(=O)c2c(Cl)cccc2Cl)cc(OC)c1`, for which the melting point – broadly, the temperature of the solid-liquid transition – was 46 to 47 °C. As for `CN(C(=O)Oc1ccc(Cl)c(C(C)(C)C)c1)c1ccc(F)cc1`, the figure is 92 to 94 °C; as for `COc1cc(OC)nc(-n2ncn(N)c2=O)n1`, 238 °C; as for `CCCn1nc2c(N)nc3ncccc3c2c1CC(C)(C)C(N)=O`, 254 to 257 °C. As for `COc1cccc(NS(=O)(=O)c2ccc(N)cc2)c1`, the figure is 142 to 145 °C; as for `CC(=O)OC1CCC2(C)C(CCC3=C4C(=O)CC(C(C)CCC=O)C4(C)CCC32)C1` (centres undefined), 162 to 164 °C; as for `CCC(=O)c1ccc(=O)[nH]c1C=CN(C)C`, 204 to 206 °C. `N#Cc1ccc(OCc2ccc(C=Cc3ccncc3)cc2)cc1` returned a melting point of 149 to 150 °C. Regarding `CN1C2CCC1CC(N(C)S(=O)(=O)c1ccc(Nc3nccc(Nc4ccc(F)cc4)n3)cc1)C2` (centres undefined), the melting point worked out at 184 °C.

As for `O=C(O)c1cc(-c2ccc([N+](=O)[O-])cc2)c(-c2ccc(F)cc2)s1`, the melting point was 227 to 229 °C. To `OCc1cccc(-c2coc(-c3cn([C@H]4CN5CCC4CC5)nn3)c2)c1` belongs 212 °C; to `Cc1cc(C)cc(P(c2ccccc2)c2ccccc2)c1`, 67 to 69 °C. To `Cc1ccc(-c2nn(-c3cccc(OC(F)(F)F)c3)c(N)c2C(N)=O)cc1` belongs 177 to 179 °C; to `Clc1ccc2ccc(COc3cccc(CN4CCc5cccc(CCc6nnn[nH]6)c54)c3)nc2c1`, 137 to 140 °C. To `O=C1SCNc2sccc21` belongs 153 to 155 °C; to `COCCc1nc2c(N)nc3ccccc3c2n1CCOc1ccccc1`, 171 to 174 °C; to `CCCc1nn(C)c(C(N)=O)c1NC(=O)c1ccccc1OCC`, 153 to 154 °C. For `c1ccc2nc(C3CCCS3)ccc2c1` (centres undefined), the melting point amounted to 63 °C.

`COc1ccc2ccc3c4cc5c(cc4nnc3c2c1)OCO5`: the melting point lay in the range of 259 to 261 °C.

The compound `CC(C(=O)NCC(=O)O)C(SC(=O)c1ccccc1)SC(=O)c1ccccc1` (centres undefined) came in with a melting point of 113 to 114 °C. To `O=C1CNC(=O)N1c1ccc([N+](=O)[O-])cc1` belongs 250 to 251 °C; to `CCOC(=O)CC1c2cc(C(F)(F)F)ccc2C(=O)N1CC(F)(F)F` (racemic), 54.5 to 55.5 °C; to `COC1CN(C(=O)c2cc(-c3cccc(Cl)c3)c(=O)[nH]c2-c2c(Cl)cccc2C#N)C1`, 239 to 243 °C. As for `O=C(c1ccoc1)c1ccc(O)c(Cl)c1Cl`, the figure is 138 to 142 °C; as for `C=CSc1nc(-c2ccc(OC)cc2)c(-c2ccc(OC)cc2)[nH]1`, 114 to 115 °C. As for `CCC(CC)N(O)C(=O)Nc1ccc(C(=O)c2ccccc2)cc1`, the figure is 156 to 157 °C; as for `NC(=O)c1cc([N+](=O)[O-])cnc1C(Br)Br`, 156 to 158 °C; as for `O=C(Nc1c[nH]nc1C(=O)NCCCO)c1ccccn1`, 209 to 211 °C.

In turn, `CC(C)n1nc(C(Br)C(=O)c2ccccc2)ccc1=O` (centres undefined) yielded a melting point of 98 to 100 °C. To `C#CC1(OC(C)=O)C(COC(=O)c2ccc(Cl)cc2)OC(n2ccc(=O)[nH]c2=O)C1OC(C)=O` (centres undefined) belongs 218 to 219 °C. To `CC(C)NC(=S)Nc1nc2ccc(OC(F)(F)F)cc2s1` belongs 242 °C; to `COc1ccccc1N(CC1OCCO1)C(=O)c1ccc(CCl)cc1`, 126 to 129 °C; to `OC(c1ccccc1)c1cc2cc(Br)ccc2o1` (centres undefined), 56 to 58 °C. For `CCOC(=O)C1=C(N)NC2=C(C(=O)CCC2)C1c1cccc(Br)c1` (centres undefined), the melting point came out at 255 °C. As to `O=C(CSc1nc2ccccc2[nH]1)c1ccc2[nH]c3ncc(Cl)cc3c2c1`, the melting point fell in the range of 209 to 210 °C.

With `O=C1CCC(N2Cc3c(OCc4cc(Cl)ccc4Cl)cccc3C2=O)C(=O)N1` (centres undefined), the melting point was in the range of 256 to 258 °C. As for `COC(=O)C1(NC(=O)Cc2c(C)ccc(-c3ccc(Cl)cc3)c2C)CCC(F)(F)CC1`, the figure is 179 to 183 °C.

`C[C@@H]1Cc2ccccc2O[C@H]1c1ccccc1` (relative stereo): the melting point is 77 to 78 °C. For the compound `CC(C)(C)OC(=O)N1CC(CCl)c2c1cc([N+](=O)[O-])c1ccccc21` (centres undefined), the melting point is 168 to 169 °C.

For `O=C(CC(=O)Oc1cc(O)cc(O)c1)Oc1cc(O)cc(O)c1`, the melting point lay in the range of 258 to 260 °C.

`O=S(=O)(Cl)Cc1csc(-c2ccc(Cl)c(Cl)c2)n1` displayed a melting point of 124 to 127 °C.

Turning to `Cc1ccc(-c2cc3onc(-c4ccccc4)c3c(=O)n2C)cc1`, the melting point lay in the range of 155 to 156 °C. In the case of `CC(=O)Oc1ccc(C(=O)N2CCN(C(N)=O)C2=O)cc1OC(C)=O`, the melting point lay within 222 to 224 °C.

The compound `Clc1ccc(-c2cn([C@H]3CN4CCC3CC4)nn2)cc1` displayed a melting point of 144 °C. To `Cc1nc(-c2ccc(-c3ccco3)cc2)c(-c2ccc(S(C)(=O)=O)cc2)o1` belongs 143 to 144 °C; to `O=C1Nc2cc(Cl)ccc2C1(Br)Br`, 127 to 130 °C; to `Cc1cccc(C(=O)NC(C)C)c1[N+](=O)[O-]`, 126 to 128 °C.

Consider `COC(=O)C1=C(C)NC(=O)N(C(C)=O)C1c1ccccc1` (centres undefined), for which the melting point fell in the range of 156 to 159 °C.

The compound `CC(=O)Nc1c(C(=O)c2cc(F)cc(F)c2)[nH]c2cc(Cl)ccc12` displayed a melting point of 232 to 233 °C. To `CC(C)(C)c1cc(-c2nc(CN3CCCC3)no2)cc(C(C)(C)C)c1O` belongs 100 to 102 °C; to `Cc1c(-c2ccccc2)nc2ccccc2c1C(=O)N[C@@H](C)C1CCCCC1`, 177 to 180 °C; to `Cc1nn(-c2cc(OC(C)C(=O)NS(=O)(=O)c3cccc4c3OC(C)(C)C4)c(Cl)cc2F)c(=O)n1C(F)F` (centres undefined), 198 to 201 °C. In the case of `Nc1ccc(-c2cc(=O)c3cccnc3o2)cc1`, the melting point was in the range of 254 to 255 °C.

`CC/C(=C(\c1ccc(/C=C/C(=O)O)cc1)c1ccc(OC(=O)OC)cc1)c1ccccc1` showed a melting point of 140 to 142 °C. To `CCOC(=O)C(C(=O)OCC)C(=O)C1CCC2C3CCC4CC(O)CCC4(C)C3C(=O)CC12C` (centres undefined) belongs 116 to 117 °C; to `CN1C(=O)c2cnc(-c3ccccc3)nc2N(C(=O)CN2CCCC2)c2ccccc21`, 196 °C; to `O=C(N[C@H](Cc1cccc(OCC(F)(F)C(F)F)c1)[C@@H](O)c1ccc(F)cc1)c1ccc(F)c2ccccc12` (racemic), 160 to 161 °C. As for `CC(=O)N1c2ccc(-c3ccc(C(=O)O)cc3)cc2[C@H](Nc2ccc(Cl)cc2)C[C@@H]1C`, the figure is 275 °C. For the compound `COc1cc(C)nc(NC(=O)NS(=O)(=O)c2ccsc2C2=CCCCC2)n1`, the melting point fell in the range of 190 to 192 °C. As for `COC(=O)CCc1cc2cc(Cl)ccc2n1S(=O)(=O)c1cccc(C)c1`, the melting point is 105 to 108 °C. On to `CCCCCS(=O)(=O)NC(=O)/C=C/c1ccc(Oc2ncccn2)cc1Oc1ncc(C(F)(F)F)cc1Cl`, for which the melting point fell in the range of 80.5 to 82.5 °C.

`COCCc1nc(-c2ccc(C(F)(F)F)cc2)ncc1COc1ccc(OC(C)(C)C(=O)O)c(C)c1` came in with a melting point of 120 °C. As for `CNC(=NO)Nc1ccccc1`, the figure is 95 to 96 °C; as for `CC1(C)OCC(Cc2ccc(C=Cc3ccc([N+](=O)[O-])cc3)cc2)O1` (centres undefined), 146 to 147 °C; as for `CNC1CCN(c2cc3c(cc2F)c(=O)c(C(=O)O)c2n3C(C)S2)C1` (centres undefined), 213 to 216 °C. To `COc1ccc(C2c3ccccc3C(c3ccc4c(c3)OCO4)C2c2nnn[nH]2)cc1` (centres undefined) belongs 155 to 157 °C; to `Cc1c(Cc2cccc(C(F)(F)F)c2)oc2c(-c3cccc(C(=O)O)c3)cccc12`, 200 to 201 °C. To `CCOc1cc2c(cc1OCC)[C@@H]1CCCC[C@@H]1N=C2c1ccc(O)cc1` (racemic) belongs 232 to 234 °C. `O=C(O)c1cc2cc(Cl)ccc2nc1N[C@@H](Cc1ccc([N+](=O)[O-])cc1)C(=O)O`: the melting point lay within 174 to 176 °C.

As for `COc1cc(C(C)(C)C(N)=O)cc2c1OC(C)(C)C2`, the melting point was in the range of 112 to 113 °C. Consider `Cc1cc(C)c2c(c1)c(-c1ccccc1Cl)c(NC(=O)Nc1ccc(F)cc1F)c(=O)n2C`, for which the melting point lay within 225 to 227 °C.

Consider `CCCCN(C(=O)CCc1ccc(OCCOC)cc1Oc1ncc(C(F)(F)F)cc1Cl)S(N)(=O)=O`, for which the melting point was in the range of 102 to 103 °C. As for `CCCn1nnc(-c2cnc3ccccn3c2=O)n1`, the figure is 115 to 116 °C.

In the case of `O=C(O)COc1ccc(SCc2ccc(-c3ccc(C(F)(F)F)cc3)cc2)c2c1CCC2`, the melting point was 158 to 159 °C. To `C[C@@H]1C(=O)C[C@H]2C[C@@H]1OO[C@@]2(C)/C=C\c1ccc(Cl)cc1Cl` belongs 137 °C. As to `CCCC1OCC(C)n2c1nc1c(N)nc3ccccc3c12` (centres undefined), the melting point fell in the range of 243 to 268 °C. As for `Cc1cccc2c(=O)n(C3CCC(=O)NC3=O)cnc12` (centres undefined), the figure is 290 to 292 °C. In turn, `N#Cc1cc(Cc2ccc(F)cc2)ccc1N` registered a melting point of 105 to 107 °C. To `NC/C=C/COc1ccc(-n2ccnc2)cc1` belongs 81 to 83 °C; to `NC(=O)Cn1c(-c2ccccn2)nc2cccnc21`, 275 to 278 °C. As for `CC(C)CCC1=Cc2c(F)cc(F)cc2N(C)C1C` (centres undefined), the figure is 154 to 155 °C. To `COc1ccc2c(c1)CN(Cc1ccccc1)CC(=O)N2` belongs 134 °C; to `O=C(c1cccnc1)N1CCC(c2ccc(Cl)cc2)=N1`, 125 to 126 °C. As for `Nc1ccc(Cn2cnc3c(-c4ccco4)ncnc32)cc1`, the melting point is 195 to 197 °C. For `OCc1ccc(-c2ccc(OC(F)(F)F)c(F)c2)cn1`, the melting point is 51 to 53 °C. With `C=CCOc1cccc2c1C(=O)N(C(C)(C#N)C(C)C)C2=O` (centres undefined), the melting point was in the range of 54 to 58 °C.

The compound `Cc1cc(OCc2ccccc2F)c2cccc(O)c2n1` displayed a melting point of 124 to 125 °C. Take `O=C1CC(=C[N+](=O)[O-])Nc2ccccc2N1c1ccccc1`: the melting point fell in the range of 231 to 234 °C. As for `Cc1noc(NS(=O)(=O)c2ccc(-c3cc4ccccc4s3)s2)c1Br`, the figure is 164 °C.

(Values after a melting point compilation (Tetko et al.; mined from patent text by program, amines drawn as free bases though some values may be those of a salt).)
